According to patent publication US9920013B2, “2,5-dioxoimidazolidin-1-yl-3-urea derivatives as formyl peptide modulators” (Allergan, Inc., priority 2014, dated 2018):

Target: T1, FPR2 (Homo sapiens, UniProt P25090)
T1 construct: expressed in transfected cells
T1 sequence (P25090 1-351): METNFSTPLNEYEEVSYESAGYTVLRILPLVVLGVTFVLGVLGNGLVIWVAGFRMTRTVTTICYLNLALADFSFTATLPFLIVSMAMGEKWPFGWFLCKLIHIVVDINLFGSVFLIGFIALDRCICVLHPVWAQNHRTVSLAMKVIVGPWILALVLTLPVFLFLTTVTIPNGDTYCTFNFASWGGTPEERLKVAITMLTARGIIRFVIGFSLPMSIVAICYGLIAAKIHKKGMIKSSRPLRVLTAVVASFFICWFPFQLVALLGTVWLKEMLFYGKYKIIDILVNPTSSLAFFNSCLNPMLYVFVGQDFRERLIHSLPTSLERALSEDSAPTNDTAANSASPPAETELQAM
Assay: FPR2 calcium activity assay on FLIPR Tetra in CHO-Gα16 cells stably expressing FPR2
Assay type: cell-based
Settings: for EC50: compound-induced calcium activity, 0.61 to 10,000 nM
Experimental: CHO-Gα16 cells stably expressing FPR2 were cultured in F12 media (10% FBS, 1% PSA, 400 μg/ml geneticin and 50 μg/ml hygromycin). In general, the day before the experiment, 18,000 cells/well were plated in a 384-well clear bottom poly-D-lysine coated plate. The following day the screening compound-induced calcium activity was assayed on a FLIPR^Tetra. The drug plates were prepared in 384-well microplates using EP3 and MultiPROBE robotic liquid handling systems. Compounds were tested at concentrations ranging from 0.61 to 10,000 nM. Results are expressed as EC50 (nM) and % efficacy values.

| FPR2 Gα16-CHO (%eff) | EC50 | Compound |
| --- | --- | --- |
| (0.94) | 6 nM | CC(=O)NCCNC(=O)CC1(C(C)C)NC(=O)N(NC(=O)Nc2ccc(Br)cc2)C1=O (stereo not drawn) [Compound 1, N-[2-(Acetylamino)ethyl]-2-[1-{[(4-Bromophenyl)carbamoyl]amino}-2,5-dioxo-4-(propan-2-yl)imidazolidin-4-yl]acetamide] |
| (0.94) | 4 nM | CC(=O)OCCNC(=O)CC1(C(C)C)NC(=O)N(NC(=O)Nc2ccc(Br)cc2F)C1=O (stereo not drawn) [Compound 2, 2-({[1-{[(4-Bromo-2-Fluorophenyl)carbamoyl]amino}-2,5-dioxo-4-(propan-2-yl)imidazolidin-4-yl]acetyl}amino)ethyl acetate] |
| (0.97) | 10 nM | CC(=O)OCCNC(=O)CC1(C(C)C)NC(=O)N(NC(=O)Nc2ccc(Br)cc2)C1=O (stereo not drawn) [Compound 3, 2-({[1-{[(4-Bromophenyl)carbamoyl]amino}-2,5-Dioxo-4-(propan-2-yl)imidazolidin-4-yl]acetyl}amino)ethyl acetate] |
